Results: PMC12294314, “Bioactive Properties of Persea americana Peel Extract and Their Role in Hypercholesterolemia Management and Cardiovascular Health” (Foods, 2025)
Read-outs that look alike come from different tables or passages of the source. Values belong to the compound of their own block, whether it stands above or below them.

Tests used:
Caco-2 cells [1] = experiment: Permeation of extract compounds across Caco-2 monolayer (Papp); format: in vitro ADME, human
Description: (§1) The permeation of the extract in Caco-2 cells was evaluated for three phenolic compounds previously identified and quantified, namely chlorogenic acid, catechin, and epicatechin. […] After 6 h, a sample was collected from the basolateral side and analyzed by HPLC-DAD, using a LiChroCART® 250-4 LiChrospher® 100 RP-18 (5 μm) column (Merck KGaA, Darmstadt, Germany), following the conditions described in a previous study.

[2] = as above; format: in vitro ADME, human; conditions: human
Description: as §1

HepG2 cells = experiment: Reactive oxygen species (ROS) production in HepG2 cells (DCFDA); format: cell-based, human; conditions: TBHP 200 µM alone, 6 h, PBS control = 100%
Description: The quantification of reactive oxygen species (ROS) produced in the HepG2 cell line was assessed. HepG2 cells were plated at a concentration of 2.5 × 10^4 cells/well in a black, transparent-bottom 96-well microplate and incubated for 24 h. Afterward, a solution of the 2′,7′–dichlorodifluorescin diacetate (DCFDA) (0.1 mM) was added to the cells and they were incubated in the dark for 45 min. The solution was then removed, and the following samples were applied: a control with only the PBS, tert-butyl hydroperoxide (TBHP) at 200 µM, the extract at 0.164 mg/mL, and a combination of the extract and THBP with their final concentrations being 0.164 mg/mL and 200 µM, respectfully. The microplate was incubated for 6 h in the dark, after which fluorescence was measured with excitation at 495 nm and emission at 527 nm, both at 37 °C (SpectraMax® GEMINI XPS/EM, Molecular Devices®, San Jose, CA, USA). ROS production was determined using Equation (1) by considering that the fluorescence produced by the control group was 100%.(1) ROS Production % =AbsSample/AbsControl × 100 where AbsSample corresponds to the absorbance of the samples and AbsControl corresponds to the absorbance of the control. The assays were carried out in quadruplicate.

Caco-2 cells [3] = experiment: Cholesterol permeation across differentiated Caco-2 monolayer; format: cell-based, human; conditions: cholesterol 5 mM apical, 6 h, extract 0.240 mg/mL, ezetimibe 0.1 mM (methods) / 0.01 mM (Figure 3 legend)
Description: The cholesterol permeation assays were carried out by following the protocol described by Arantes et al.. Caco-2 cells were cultured in a 12-well microplate with inserts (A = 1.1 cm^2) and maintained until differentiation. To evaluate the integrity of the membrane, transepithelial electrical resistance (TEER) of the formed membrane was measured. When the TEER value exceeded 250 Ω·cm^2, it was considered that the membrane was formed.
Subsequently, 0.5 mL of the solutions to be analyzed was added on the apical side of each insert: cholesterol (5 mM) (control), extract (0.240 mg/mL), extract (0.240 mg/mL) with cholesterol (5 mM), and ezetimibe (0.1 mM) with cholesterol (5 mM). On the basolateral side, 1.5 mL of the Hank’s Balanced Salt Solution (HBSS) was added. The cells were incubated at 37 °C in a 5% CO2 atmosphere for 6 h. After this period, the basolateral solution of each well was collected and analyzed by high-performance liquid chromatography coupled to a diode-array detector (HPLC-DAD) using an Elite LaChrom® (HITACHI, VWR, Tokyo, Japan), with an Autosampler L-2200, a Column Oven L-2300, and a Diode Array Detector L 2455 (VWR, Radnor, PA, USA). The column used was LiChroCART® 250-4 LiCrosphere®100 RP-8 (5 μm) (Merk, Darmstadt, Germany). The conditions followed were the ones presented by Pinto et al.. […]

SMILES: O=C(/C=C/c1ccc(O)c(O)c1)O[C@@H]1C[C@](O)(C(=O)O)C[C@@H](O)[C@H]1O [Chlorogenic Acid (3), Chlorogenic Acid]
Papp at 6 h, 0.24 mg/mL ([2]; Caco-2, apical sample: extract (0.240 mg/mL), Caco-2, 6 h, read-out: Papp): 6.5 ×10⁻⁶ cm/s
Papp at 6 h, 0.24 mg/mL ([2]; Caco-2, apical sample: extract, Caco-2, read-out: Permeability class (from Papp)): 1 to 10 ×10⁻⁶ cm/s

SMILES: CC(C)(C)OO [TBHP, tert-butyl hydroperoxide]
ROS production (% of control) (HepG2 cells): approximately 395%

SMILES: O=C1[C@H](CC[C@H](O)c2ccc(F)cc2)[C@@H](c2ccc(O)cc2)N1c1ccc(F)cc1 [ezetimibe]
Reduction in cholesterol permeability (Caco-2 cells [3]): 62 ± 5%

Second part, the compound after the results:

Papp (Caco-2 cells [1]; Caco-2): 14.4 10^−6 cm/s
SMILES: Oc1cc(O)c2c(c1)OC(c1ccc(O)c(O)c1)C(O)C2 (single isomer, unassigned; (+)) [Catechin (13), (+)-Catechin]

Papp at 6 h, 0.24 mg/mL ([2]; Caco-2, Permeability class (from Papp)): > 10 ×10⁻⁶ cm/s
Papp (Caco-2 cells [1]; human, Caco-2, 6 h, 0.24 mg/mL): 24.0 10^−6 cm/s
SMILES: Oc1cc(O)c2c(c1)O[C@H](c1ccc(O)c(O)c1)[C@H](O)C2 [Epicatechin (15), (−)-Epicatechin]
